How the values were obtained:
[1] = test system: PA-1 ovarian cancer cells; test: Cell growth inhibition, Sulforhodamine B assay, PA-1; format: cell-based; settings: 120 h, 5 days culture, SRB assay, read-out: Cell Line GI50 Range PA-1
HT29 colon cancer cells = test: Cell growth inhibition, Sulforhodamine B assay, HT29; format: cell-based; settings: Homo sapiens, HT-29, 120 h, 5 days culture, SRB assay, read-out: Cell Line GI50 Range HT29
[2] = test system: MDA-MB-468 breast cancer cells; test: Cell growth inhibition, Sulforhodamine B assay, MDA-MB-468; format: cell-based; settings: Homo sapiens, 120 h, 5 days culture, SRB assay, read-out: Cell Line GI50 Range MDA-MB-468
Method: Breast cancer cells (MDA-MB-231, MDA-MB-468), colon cancer cells (HCT116, HT29) and ovarian cancer cells (PA-1, OVCAR-3) were seeded (1000 to 4000 in 80 μl per well depending on the cell growth rate) into 96 well plates 24 hours before compound overlay. Compounds were prepared as 10 mM stock solutions in 100% DMSO which were diluted with DMEM (Dulbecco's Modified Eagle's Medium) cell growth Medium (Invitrogen, Burlington, ON, Canada) containing 10% FBS (Fetal Bovine Serum) to concentrations ranging from 50 nM to 250 μM. Aliquots (20 μl) from each concentration were overlaid to 80 μl of the pre-seeded cells in the 96 well plates to make final concentrations of 10 nM to 50 μM. The cells were cultured for 5 days before the Sulforhodamine B assay (SRB) was performed to determine the compound's cell growth inhibition activity.
Sulforhodamine B (purchased from Sigma, Oakville, ON, Canada) is a water-soluble dye that binds to the basic amino acids of the cellular proteins. Thus, colorimetric measurement of the bound dye provides an estimate of the total protein mass that is related to the cell number. the cells are fixed in situ by gently aspirating off the culture media and adding 50 μl ice cold 10% Trichloroacetic Acid (TCA) per well and incubate at 4° C. for 30-60 min, The plates are washed with water five times and allowed to air dry for 5 min. Addition of 50 μl 0.4% (w/v) SRB solution in 1% (v/v) acetic acid to each well and incubatation for 30 min at RT completes the staining reaction. Following staining, plates are washed four times with 1% acetic acid to remove unbound dye and then allowed to air dry for 5 min. The stain is solubilized with 100 μl of 10 mM Tris pH 10.5 per well. Absorbance is read at 570 nm.
The percentage (%) of relative growth inhibition was calculated by comparing to DMSO treated only cells (100%). […] The GI50 was calculated using GraphPad PRISM software (GraphPad Software, Inc., San Diego, Calif., USA).

[3] = test system: Ovarian TICs, 2393A ovarian; test: Ovarian tumor-initiating cell growth inhibition (Alamar Blue); format: cell-based; settings: 144 h, 6 days, read-out: GI50 range 2393A ovarian
Source text: Materials and Methods: Non-tissue or tissure cultured treated T-75 flask and 96-well plates were purchased from VWR. Vitamin B-27 supplement, MEM NEAA (minimum essential medium non essential amino acids), sodium pyruvate, L-glutamine, N2 supplement, penicillin-streptomycin and fungizone/amphotericin B were obtained from Invitrogen. Lipid mixture, heparin and EGF were purchased from Sigma; bFGF from BD Biosciences. Colon tumor initiating cells (TICs) were routinely maintained using non-tissue cultured treated T-75 flasks in DMEM:F12 medium containing 0.2XB-27 supplement, 4 ug/ml heparin, 1XMEM NEAA, 1× sodium pyruvate, 1 mM glutamine, 10 pg/ul bFGF, 20 pg/ul EGF, 1×N2 supplement, lipid mixture, penicillin-streptomycin and fungizone/amphotericin B. Ovarian TICs were routinely maintained using tissue cultured treated T-75 flasks in DMEM:F12 medium containing 1XB-27 supplement, 4 ug/ml heparin, 20 pg/ul bFGF, 20 pg/ul EGF and penicillin-streptomycin.
Compounds described herein were dissolved in DMSO and further diluted in cell culture medium for GI50 determination. Colon TICs were trypsinized and seeded into non-tissue cultured treated 96-well plates with 4,000 cells/well. After 24 h, compound was added into the cell culture at different concentrations, and the final concentration of DMSO was adjusted to 0.1%. Cells were then cultured at 37° C. for 9 days. Ovarian TICs were trypsinized and seeded into tissue cultured treated 96-well plates with 1,000 cells/well. After 24 h, compound was added into the cell culture at different concentrations, and the final concentration of DMSO was adjusted to 0.1%. Cells were then cultured at 37° C. for 6 days. Cell viability was assessed by Alamar Blue assay: 10 ul of Alamar Blue was added into each well. After 4 hours incubation at 37° C., fluorescence was recorded at excitation 544 and emission 590. GI50 (Growth inhibition) was calculated using GraphPad Prism 4.0 software.

[4] = test system: HCT116 colon cancer cells; test: Cell growth inhibition, Sulforhodamine B assay, HCT116; format: cell-based; settings: Homo sapiens, HCT-116, 120 h, 5 days culture, SRB assay, read-out: Cell Line GI50 Range HCT116
[5] = test system: OVCAR-3 ovarian cancer cells; test: Cell growth inhibition, Sulforhodamine B assay, OVCAR-3; format: cell-based; settings: Homo sapiens, 120 h, 5 days culture, SRB assay, read-out: Cell Line GI50 Range OVCAR-3
human PLK4 = biological target: T1, human PLK4 (Homo sapiens, UniProt O00444); test: PLK4 inhibition assay (indirect ELISA); format: biochemical; settings: GST-PLK4 4 nM, 15 μM ATP; read-out: IC50 Ranges PLK4
T1 construct: amino terminal GST fusion of residues 1-391 of human PLK4; made in house; host or cells: E. coli
T1 sequence (O00444 1-391): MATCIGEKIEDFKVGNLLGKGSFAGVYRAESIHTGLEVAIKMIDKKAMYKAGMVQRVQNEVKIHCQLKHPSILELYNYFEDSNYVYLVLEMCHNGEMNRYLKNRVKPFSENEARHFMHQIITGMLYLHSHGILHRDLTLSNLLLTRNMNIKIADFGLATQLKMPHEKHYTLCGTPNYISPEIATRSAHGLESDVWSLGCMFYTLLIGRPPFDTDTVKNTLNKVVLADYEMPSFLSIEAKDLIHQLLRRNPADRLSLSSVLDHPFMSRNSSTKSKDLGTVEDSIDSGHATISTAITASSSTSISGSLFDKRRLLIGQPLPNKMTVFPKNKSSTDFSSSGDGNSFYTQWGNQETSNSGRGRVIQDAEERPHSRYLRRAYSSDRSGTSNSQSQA
Method in brief: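 Compounds were tested either at a single 10 μM dose or across 10-point titrations (typically 0.5 to 0.001 μM), preincubated 15 min with 4 nM GST-PLK4 (human 1-391, dephosphorylated) before 15 μM ATP was added. MBP substrate phosphorylation over 30 min, pH 7.5 HEPES/MgCl2 buffer, read by HRP/TMB ELISA (450 nm). % inhibition vs. high-activity control; IC50 by logistic fit.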

human TTK = biological target: T2, human TTK (Homo sapiens, UniProt P33981); test: TTK inhibition assay (indirect ELISA); format: biochemical; settings: GST-TTK 0.68 nM, 16 μM ATP; read-out: IC50 Ranges TTK
T2 construct: amino terminal GST fusion of full length human TTK; purchased Invitrogen
T2 sequence (P33981 1-857): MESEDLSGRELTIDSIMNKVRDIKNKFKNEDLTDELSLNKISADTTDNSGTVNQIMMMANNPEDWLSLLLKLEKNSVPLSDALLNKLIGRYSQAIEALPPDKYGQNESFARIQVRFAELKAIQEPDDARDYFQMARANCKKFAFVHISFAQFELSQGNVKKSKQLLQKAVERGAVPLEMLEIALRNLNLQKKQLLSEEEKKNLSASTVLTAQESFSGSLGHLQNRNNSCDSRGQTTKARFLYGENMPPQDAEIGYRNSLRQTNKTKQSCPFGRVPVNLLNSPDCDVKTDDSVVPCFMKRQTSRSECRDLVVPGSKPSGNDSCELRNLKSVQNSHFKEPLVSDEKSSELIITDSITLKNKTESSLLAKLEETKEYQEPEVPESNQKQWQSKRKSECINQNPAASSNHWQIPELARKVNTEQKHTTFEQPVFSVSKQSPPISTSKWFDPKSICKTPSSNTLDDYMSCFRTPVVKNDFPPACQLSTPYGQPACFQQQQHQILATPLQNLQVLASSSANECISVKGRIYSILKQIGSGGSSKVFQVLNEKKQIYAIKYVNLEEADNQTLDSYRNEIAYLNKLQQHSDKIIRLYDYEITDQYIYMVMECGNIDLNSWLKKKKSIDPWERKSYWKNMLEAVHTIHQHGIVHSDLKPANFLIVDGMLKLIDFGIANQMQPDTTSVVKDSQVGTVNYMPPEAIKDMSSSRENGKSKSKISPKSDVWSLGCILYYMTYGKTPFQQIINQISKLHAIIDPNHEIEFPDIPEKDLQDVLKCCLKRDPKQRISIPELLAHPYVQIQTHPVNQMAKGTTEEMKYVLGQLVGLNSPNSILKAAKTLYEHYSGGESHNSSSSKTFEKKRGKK
Method: Active TTK was purchased from Invitrogen as an amino terminal GST fusion of full length human TTK.
TTK activity was measured using an indirect ELISA detection system. GST-TTK (0.68 nM) was incubated in the presence of 16 μM ATP (Sigma cat#A7699), 50 mM Hepes pH 7.2, 1 mM EGTA, 10 mM MgCl2, and 0.1% Pluronic in a 96 well microtitre plate pre-coated with amino terminal 6 histidine, sumo tagged TTK (amino acid residues 1-275). The reaction was allowed to proceed for 30 minutes, followed by 5 washes of the plate with Wash Buffer (phosphate buffered saline supplemented with 0.2% Tween 20), and incubation for 30 minutes with a 1:3000 dilution of primary antibody (Cell Signaling cat#9381). The plate was washed 5 times with Wash Buffer, incubated for 30 minutes in the presence of secondary antibody coupled to horse radish peroxidase (BioRad cat#1721019, 1:3000 concentration), washed an additional 5 times with Wash Buffer, and incubated in the presence of TMB substrate (Sigma cat#T0440). The colourimetric reaction was allowed to continue for 5 minutes, followed by addition of stop solution (0.5 N sulphuric acid), and quantified by detection at 450 nm with either a monochromatic or filter based plate reader (Molecular Devices M5 or Beckman DTX880, respectively).
Compounds were pre-incubated in the presence of enzyme for 5 minutes prior to addition of ATP and the activity remaining quantified using the above described activity assay. The % Inhibition of a compound was determined using the following formula; % Inhibition=100×(1−(experimental value−background value)/(high activity control−background value)). The IC50 value was determined using a non-linear 4 point logistic curve fit (XLfit4, IDBS) with the formula; (A+(B/(1+((x/C)̂D)))), where A=background value, B=range, C=inflection point, D=curve fit parameter.

[6] = test system: Colon tumor initiating cells (TICs), 12 colon; test: Colon tumor-initiating cell growth inhibition (Alamar Blue); format: cell-based; settings: 216 h, 9 days, read-out: GI50 range 12 colon
Aurora B = biological target: T3, Aurora B (Homo sapiens, UniProt Q96GD4); test: Aurora B inhibition assay (Z-Lyte); format: biochemical; settings: 28 nM Aurora B, 128 μM ATP; read-out: IC50 Ranges Aurora B
T3 construct: purchased Invitrogen PV3970
T3 sequence (Q96GD4 whole entry): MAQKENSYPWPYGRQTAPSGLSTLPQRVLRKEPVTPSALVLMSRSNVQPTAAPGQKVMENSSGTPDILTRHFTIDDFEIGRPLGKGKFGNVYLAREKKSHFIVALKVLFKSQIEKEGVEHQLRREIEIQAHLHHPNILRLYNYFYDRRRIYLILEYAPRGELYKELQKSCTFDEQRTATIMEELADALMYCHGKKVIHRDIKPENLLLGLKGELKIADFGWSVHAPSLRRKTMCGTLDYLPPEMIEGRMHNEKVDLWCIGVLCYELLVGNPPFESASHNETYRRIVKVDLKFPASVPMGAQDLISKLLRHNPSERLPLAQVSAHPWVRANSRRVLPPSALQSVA
Method: Aurora B inhibition was determined using the Z-Lyte assay kit from Invitrogen. The assay was performed using the recommended manufacturer's instructions with 128 μM ATP and 28 nM Aurora B (Invitrogen cat #PV3970). The % inhibition values were determined according to the manufacturer's directions and IC50 values were obtained using a non-linear 4 point logistic curve fit (XLfit4, IDBS)

[7] = test system: MDA-MB-231 breast cancer cells; test: Cell growth inhibition, Sulforhodamine B assay, MDA-MB-231; format: cell-based; settings: Homo sapiens, 120 h, 5 days culture, SRB assay, read-out: Cell Line GI50 Range MDA-MB-231

SMILES | GI50 [1] | GI50 (HT29 colon cancer cells) | GI50 [2] | GI50 [3] | GI50 [4] | GI50 [5] | IC50 (human PLK4) | IC50 (human TTK) | GI50 [6] | IC50 (Aurora B) | GI50 [7]
CO[C@@H](C(=O)Nc1ccc2[nH]nc(-c3ccc(OC4CCN(C=O)CC4)cc3)c2c1)c1ccccc1 [Example A169, (R)—N-(3-(4-((1-formylpiperidin-4-yl)oxy)phenyl)-1H-indazol-5-yl)-2-methoxy-2-phenylacetamide] | ≤ 5 µM | ≤ 5 µM | ≤ 5 µM | ≤ 5 µM | ≤ 5 µM | 5 to 20 µM | ≤ 5 µM | ≤ 5 µM | ≤ 5 µM | – | –
O=C(NC(c1ccccn1)C1CC1)c1ccc2[nH]nc(-c3ccc(OC4CCN(C5COC5)CC4)cc3)c2c1 (centres unmarked) [Example A171, N-(cyclopropyl(pyridin-2-yl)methyl)-3-(4-((1-(oxetan-3-yl)piperidin-4-yl)oxy)phenyl)-1H-indazole-5-carboxamide] | ≤ 5 µM | ≤ 5 µM | ≤ 5 µM | ≤ 5 µM | ≤ 5 µM | ≤ 5 µM | ≤ 5 µM | ≤ 5 µM | ≤ 5 µM | ≤ 5 µM | –
CCOC(C(=O)Nc1ccc2[nH]nc(-c3ccc(OC4CCN(C)CC4)cc3)c2c1)c1ccccc1 (centres unmarked) [Example A181, 2-ethoxy-N-(3-(4-((1-methylpiperidin-4-yl)oxy)phenyl)-1H-indazol-5-yl)-2-phenylacetamide] | ≤ 5 µM | – | ≤ 5 µM | ≤ 5 µM | ≤ 5 µM | ≤ 5 µM | ≤ 5 µM | ≤ 5 µM | ≤ 5 µM | – | ≤ 5 µM
CN1CCC(Oc2ccc(-c3n[nH]c4ccc(NC(=O)C(OC5CCCC5)c5ccccc5)cc34)cc2)CC1 (centres unmarked) [Example A183, 2-(cyclopentyloxy)-N-(3-(4-((1-methylpiperidin-4-yl)oxy)phenyl)-1H-indazol-5-yl)-2-phenylacetamide] | ≤ 5 µM | – | ≤ 5 µM | ≤ 5 µM | ≤ 5 µM | ≤ 5 µM | ≤ 5 µM | ≤ 5 µM | ≤ 5 µM | ≤ 5 µM | ≤ 5 µM
O=C(Nc1ccc2[nH]nc(-c3ccc(OC4CCN(C5COC5)CC4)cc3)c2c1)C(c1ccsc1)N1CCCC1 (centres unmarked) [Example A184, N-(3-(4-((1-(oxetan-3-yl)piperidin-4-yl)oxy)phenyl)-1H-indazol-5-yl)-2-(pyrrolidin-1-yl)-2-(thiophen-3-yl)acetamide] | ≤ 5 µM | – | ≤ 5 µM | ≤ 5 µM | ≤ 5 µM | – | ≤ 5 µM | ≤ 5 µM | ≤ 5 µM | ≤ 5 µM | ≤ 5 µM
CC(C)OC(C(=O)Nc1ccc2[nH]nc(-c3ccc(OC4CCN(C)CC4)cc3)c2c1)c1ccccc1 (centres unmarked) [Example A187, 2-isopropoxy-N-(3-(4-((1-methylpiperidin-4-yl)oxy)phenyl)-1H-indazol-5-yl)-2-phenylacetamide] | ≤ 5 µM | – | ≤ 5 µM | ≤ 5 µM | ≤ 5 µM | ≤ 5 µM | ≤ 5 µM | ≤ 5 µM | ≤ 5 µM | ≤ 5 µM | ≤ 5 µM
CN1CCC(Oc2ccc(-c3n[nH]c4ccc(C(=O)NC(c5ccccc5)C5CC5)cc34)cc2Cl)CC1 (centres unmarked) [Example A188, 3-(3-chloro-4-((1-methylpiperidin-4-yl)oxy)phenyl)-N-(cyclopropyl(phenyl)methyl)-1H-indazole-5-carboxamide] | ≤ 5 µM | – | ≤ 5 µM | ≤ 5 µM | ≤ 5 µM | ≤ 5 µM | ≤ 5 µM | ≤ 5 µM | ≤ 5 µM | ≤ 5 µM | ≤ 5 µM
O=C(Nc1ccc2[nH]nc(-c3ccc(OC4CN(C5COC5)C4)cc3)c2c1)C(c1ccsc1)N1CCCC1 (centres unmarked) [Example A189, N-(3-(4-((1-(oxetan-3-yl)azetidin-3-yl)oxy)phenyl)-1H-indazol-5-yl)-2-(pyrrolidin-1-yl)-2-(thiophen-3-yl)acetamide] | ≤ 5 µM | – | ≤ 5 µM | ≤ 5 µM | ≤ 5 µM | 20 to 50 µM | ≤ 5 µM | ≤ 5 µM | ≤ 5 µM | ≤ 5 µM | 5 to 20 µM

Source: patent US20140051679A1, “KINASE INHIBITORS AND METHOD OF TREATING CANCER WITH SAME” (UNIVERISTY HEALTH NETWORKS, priority 2011, published 2014)
